The values that follow come from PubChem BioAssay (NCI).

Among the test systems are HCC-2998 colon; HCT-15 colon; HL-60(TB) leukemia; K-562 leukemia; MALME-3M melanoma; NCI-H522 lung; SN12C renal; SNB-19 CNS; U251 CNS.
Common to all, as to experiment: inhibition of tumour cell growth, NCI panel, 48 h

SMILES strings stand for the structures.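 Interpolation was linear, between the two tested concentrations surrounding the appropriate level; five concentrations were tested over 48 hours in 96-well plates. Abbreviation: GI50, concentration required for 50% inhibition of growth. At the TGI there is no net growth.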

In the case of `CCOC(=O)C#Cc1c(CC(=O)OCC)nnn1[C@H]1O[C@@H](CO)[C@@H]2OC(C)(C)O[C@@H]21`, the GI50 is 17.7 µM in the assay with HCC-2998 colon; 2.52 µM with HCT-15 colon; 1.86 µM in the assay with HL-60(TB) leukemia; 3 µM with K-562 leukemia; 2 µM with MALME-3M melanoma; 2.12 µM in the assay on NCI-H522 lung. In addition, the GI50 in the assay on SN12C renal is 3.06 µM; with SNB-19 CNS it was 33.9 µM; with U251 CNS, 14 µM. The TGI worked out at 31.8 µM with HCC-2998 colon; 7.02 µM with HCT-15 colon; 5.71 µM in the assay on HL-60(TB) leukemia; 11.1 µM in the assay with K-562 leukemia; 4.16 µM with MALME-3M melanoma; 4.09 µM in the assay on NCI-H522 lung. In addition, the figures for the TGI in the assay on SN12C renal, in the assay with SNB-19 CNS and in the assay on U251 CNS were 9.01 µM, greater than 100 µM and 27.6 µM, respectively.

With `Cc1ccc(C2=C(c3ccccc3)C(Br)(c3ccccc3)C(c3ccccc3)=C2c2ccc(C)cc2)cc1`, the TGI in the assay with HCT-15 colon, in the assay on HL-60(TB) leukemia, in the assay with K-562 leukemia, with MALME-3M melanoma, in the assay with NCI-H522 lung and in the assay with SN12C renal was greater than 100 µM throughout. In addition, the TGI in the assay with SNB-19 CNS and in the assay with U251 CNS was greater than 100 µM each time.

For `CC12CC3CC(C1)CC(N=[N+]=[N-])(C3)C2`, the TGI with HCC-2998 colon, with K-562 leukemia, in the assay with MALME-3M melanoma, in the assay on NCI-H522 lung, in the assay with SN12C renal and with SNB-19 CNS was greater than 100 µM each time. In the assay with U251 CNS, the TGI is greater than 100 µM.

In the case of `O=C(/C=C1/NC(=O)CS1)Nc1ccccc1`, the TGI with HCC-2998 colon, in the assay on HL-60(TB) leukemia, with K-562 leukemia, with MALME-3M melanoma, with NCI-H522 lung and in the assay with SN12C renal was greater than 100 µM each time. The TGI with SNB-19 CNS and in the assay on U251 CNS was greater than 100 µM throughout.

`COc1cc2cccc(NC(=O)c3cc(OC)c(OC)c(OC)c3Br)c2cc1OC`: the TGI is 85.4 µM in the assay on HCC-2998 colon; 46.6 µM in the assay with K-562 leukemia; 49.8 µM with MALME-3M melanoma; 42.1 µM with NCI-H522 lung; greater than 100 µM in the assay on SN12C renal; greater than 100 µM in the assay with SNB-19 CNS. In addition, the TGI in the assay on U251 CNS was determined as 78.9 µM.

In the case of `O=C1C[C@@H]2CCCC[C@@H]2C12SCCS2`, the TGI in the assay with HCC-2998 colon, in the assay with HCT-15 colon, in the assay on HL-60(TB) leukemia, in the assay on K-562 leukemia, in the assay on MALME-3M melanoma and with NCI-H522 lung was greater than 100 µM each time. Also, the TGI in the assay on SN12C renal, in the assay on SNB-19 CNS and with U251 CNS was greater than 100 µM throughout.

`CC(C)CCc1c(Cl)nc(Cl)nc1Cl`: the TGI is 64 µM in the assay with HCC-2998 colon; greater than 100 µM in the assay with HCT-15 colon; greater than 100 µM in the assay on HL-60(TB) leukemia; greater than 100 µM in the assay on K-562 leukemia; 50.7 µM in the assay on MALME-3M melanoma; 9.89 µM in the assay on NCI-H522 lung. The TGI with SN12C renal came to 57.9 µM; in the assay on SNB-19 CNS it was 39 µM; with U251 CNS, 24.4 µM.

For `c1ccc(SC(CCCCOC2CCCCO2)Sc2ccccc2)cc1` (stereo unspecified), the TGI is greater than 100 µM with HCC-2998 colon; greater than 100 µM in the assay with HCT-15 colon; 47.5 µM in the assay with HL-60(TB) leukemia; greater than 100 µM in the assay with K-562 leukemia; greater than 100 µM in the assay with MALME-3M melanoma; 53.8 µM in the assay with NCI-H522 lung. Besides, the TGI in the assay on SN12C renal, in the assay with SNB-19 CNS and in the assay on U251 CNS was greater than 100 µM throughout.

Take `COc1ccc2c(c1)CC1c3c(cc4c(c3-2)OCO4)CCN1C` (stereo unspecified): the TGI was greater than 100 µM in the assay on HCC-2998 colon; greater than 100 µM in the assay with HCT-15 colon; greater than 100 µM with K-562 leukemia; 83.3 µM with MALME-3M melanoma; 38.7 µM with NCI-H522 lung; greater than 100 µM in the assay on SN12C renal. Moreover, the TGI with SNB-19 CNS and with U251 CNS was greater than 100 µM each time.

For `O=C1CCCC1NC(=O)C(F)(F)F` (stereo unspecified), the TGI in the assay with HL-60(TB) leukemia, with K-562 leukemia, in the assay with MALME-3M melanoma, in the assay on NCI-H522 lung, with SN12C renal and with SNB-19 CNS was greater than 100 µM each time. Also, in the assay with U251 CNS, the TGI was greater than 100 µM.

For the molecule `Cn1c(=O)c(C(=O)NC(=O)OCc2ccccc2)cn(CCSCCOC(=O)NCCCCCCNC(=O)OCCSCCn2cc(C(=O)NC(=O)OCc3ccccc3)c(=O)n(C)c2=O)c1=O`, the TGI in the assay on HCC-2998 colon, in the assay with HCT-15 colon, with HL-60(TB) leukemia, with K-562 leukemia, in the assay on MALME-3M melanoma and in the assay on NCI-H522 lung was greater than 100 µM each time. Further, the TGI in the assay on SN12C renal, with SNB-19 CNS and in the assay on U251 CNS was greater than 100 µM throughout.

For the molecule `OCCNCCNc1c2ccccc2nc2oc3ccccc3c12`, the GI50 with HCC-2998 colon is 4.91 µM; in the assay with HCT-15 colon it was 7.57 µM; in the assay on HL-60(TB) leukemia, 12.4 µM; in the assay with K-562 leukemia, 33.9 µM; in the assay on MALME-3M melanoma it was 11.4 µM; with NCI-H522 lung it was 7.73 µM. Also, the GI50 in the assay with SN12C renal is 8.86 µM; in the assay with SNB-19 CNS, 11.6 µM; with U251 CNS, 12.5 µM. The TGI was 20.9 µM with HCC-2998 colon; 53.1 µM in the assay on HCT-15 colon; 50.5 µM in the assay with HL-60(TB) leukemia; greater than 100 µM with K-562 leukemia; 41.8 µM in the assay with MALME-3M melanoma; 23.7 µM with NCI-H522 lung. In addition, the figures for the TGI in the assay with SN12C renal, with SNB-19 CNS and in the assay with U251 CNS were 57.7 µM, 36.2 µM and 30.2 µM, respectively.

As for `Clc1ccc(SCCCCCCCCCCSc2ccc(Cl)cc2)cc1`, the TGI was greater than 64.6 µM in the assay with HCC-2998 colon; greater than 75.9 µM with HCT-15 colon; greater than 100 µM with HL-60(TB) leukemia; greater than 100 µM with K-562 leukemia; greater than 70.3 µM in the assay on MALME-3M melanoma; greater than 100 µM in the assay with NCI-H522 lung. Besides, the TGI was greater than 100 µM in the assay with SN12C renal, greater than 100 µM in the assay on SNB-19 CNS and greater than 69.8 µM with U251 CNS.
